How the values were obtained:
Format in all cases: biochemical
MERTK = biological target: T1, MERTK (Homo sapiens, UniProt Q12866); test: MERTK enzymatic assay (Kinase Glo); settings: purified kinase, ATP 12 μM, read-out: MER Enzymatic Inhibition (%)
T1 sequence (Q12866 21-999): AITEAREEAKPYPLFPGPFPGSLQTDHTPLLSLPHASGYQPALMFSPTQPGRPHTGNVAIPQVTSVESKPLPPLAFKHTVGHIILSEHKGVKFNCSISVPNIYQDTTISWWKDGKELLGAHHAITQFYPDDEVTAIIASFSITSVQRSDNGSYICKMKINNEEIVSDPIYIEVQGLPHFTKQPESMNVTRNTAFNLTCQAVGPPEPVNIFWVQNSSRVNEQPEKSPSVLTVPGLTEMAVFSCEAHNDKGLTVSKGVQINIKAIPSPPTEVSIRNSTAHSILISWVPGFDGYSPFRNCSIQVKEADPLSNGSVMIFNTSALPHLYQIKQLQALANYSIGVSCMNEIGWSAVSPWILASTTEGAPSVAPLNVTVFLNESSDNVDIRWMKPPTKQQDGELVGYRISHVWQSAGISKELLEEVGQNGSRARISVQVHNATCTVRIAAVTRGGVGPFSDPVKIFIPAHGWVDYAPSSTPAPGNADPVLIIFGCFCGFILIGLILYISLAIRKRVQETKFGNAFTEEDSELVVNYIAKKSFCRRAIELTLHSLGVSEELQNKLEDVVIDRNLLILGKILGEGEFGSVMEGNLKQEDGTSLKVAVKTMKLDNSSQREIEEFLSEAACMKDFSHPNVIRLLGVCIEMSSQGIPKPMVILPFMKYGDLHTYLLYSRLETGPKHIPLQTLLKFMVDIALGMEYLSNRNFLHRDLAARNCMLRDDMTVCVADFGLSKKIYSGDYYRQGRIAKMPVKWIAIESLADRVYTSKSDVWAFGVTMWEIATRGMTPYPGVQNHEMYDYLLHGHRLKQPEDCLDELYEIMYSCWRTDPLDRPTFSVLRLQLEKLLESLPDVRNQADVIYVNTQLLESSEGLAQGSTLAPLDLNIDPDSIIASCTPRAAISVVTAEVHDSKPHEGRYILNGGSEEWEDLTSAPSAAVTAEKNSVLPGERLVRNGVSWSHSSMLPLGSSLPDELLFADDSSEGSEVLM
Method: (§1) A purified kinase (AXL or MERTK) was incubated with a compound or DMSO (control) for 15 minutes in an assay buffer (25 mM Tri s pH 7.4, 10 mM MgCl2, 4 mM MnCl2, 2 mM DTT, 0.0100 BSA, 0.02% TritonX-100, 0.0100 Brij35 and 0.5 mM Na3VO4 for MERTK; and 40 mM Tri s pH 7.4, 20 mM MgCl2, 2 mM DTT, 0.01% BSA and 0.5 mM Na3VO4 for AXL). […] The mixture was incubated for 3 hours at 30° C. The luminescence was calculated to determine the kinase activity using a Kinase Glo assay kit for MERTK and an ADP-Glo Kinase Assay kit for AXL following the manufacture's instructions (Promega Corp., Madison, Wisconsin).
(§2) A study was conducted to compare exemplary compounds of formula (I) in inhibiting TAM activities, including MERTK, AXL, and TYRO3. An enzymatic assay was used in the study. A purified Kinase (i.e., MERTK, AXL, or TYRO3) was incubated with a compound or DMSO (control) for around 15 minutes in an assay buffer (25 mM Tris pH 7.4, 10 mM MgCl2, 4 mM MnCl2, 2 mM DTT, 0.01% BSA, 0.02% TritonX-100, 0.01% Brij35 and 0.5 mM Na3VO4 for MERTK; 40 mM Tris pH 7.4, 20 mM MgCl2, 2 mM DTT, 0.01% BSA and 0.5 mM Na3VO4 for AXL; and 25 mM Tris pH 7.4, 10 mM MgCl2, 4 mM MnCl2, 2 mM DTT, 0.01% BSA and 0.5 mM Na3VO4 for TYRO3). […] The mixture was incubated for 3 hours at 30° C. The luminescence was calculated to determine the kinase activity using a Kinase Glo assay kit for MERTK and an ADP-Glo Kinase assay kit for AXL and TYRO3 following the manufacture's instructions (Promega). Inhibition rates and half maximal inhibitory concentration (IC50) values were calculated. High percentage inhibition rates and low IC50 values are indicatives of high potency of the test compound.

AXL = biological target: T2, AXL (Homo sapiens, UniProt P30530); test: AXL enzymatic assay (ADP-Glo); settings: purified kinase, ATP 50 μM, read-out: AXL Enzymatic Inhibition (%)
T2 sequence (P30530 26-894): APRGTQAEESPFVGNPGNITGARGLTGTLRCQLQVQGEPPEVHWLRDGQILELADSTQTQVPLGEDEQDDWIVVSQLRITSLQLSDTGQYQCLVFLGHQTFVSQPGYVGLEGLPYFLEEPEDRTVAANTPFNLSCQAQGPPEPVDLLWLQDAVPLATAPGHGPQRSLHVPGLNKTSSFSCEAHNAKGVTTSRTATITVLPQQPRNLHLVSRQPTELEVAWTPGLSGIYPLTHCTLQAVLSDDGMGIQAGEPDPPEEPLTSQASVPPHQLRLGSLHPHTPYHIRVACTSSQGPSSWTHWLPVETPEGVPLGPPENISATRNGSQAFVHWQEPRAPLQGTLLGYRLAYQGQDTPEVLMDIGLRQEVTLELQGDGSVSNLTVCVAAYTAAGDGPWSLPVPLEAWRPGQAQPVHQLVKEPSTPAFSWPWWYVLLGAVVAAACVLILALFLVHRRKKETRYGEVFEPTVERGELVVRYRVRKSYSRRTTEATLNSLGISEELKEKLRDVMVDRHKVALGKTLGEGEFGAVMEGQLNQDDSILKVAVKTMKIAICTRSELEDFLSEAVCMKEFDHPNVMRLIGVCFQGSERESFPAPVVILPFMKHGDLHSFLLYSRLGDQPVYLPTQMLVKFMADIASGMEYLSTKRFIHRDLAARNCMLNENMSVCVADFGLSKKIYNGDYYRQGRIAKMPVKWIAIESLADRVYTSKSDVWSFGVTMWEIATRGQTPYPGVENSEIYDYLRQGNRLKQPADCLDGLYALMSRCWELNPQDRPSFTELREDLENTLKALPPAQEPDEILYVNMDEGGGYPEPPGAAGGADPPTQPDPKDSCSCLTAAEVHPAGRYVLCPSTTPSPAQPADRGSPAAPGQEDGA
Method: as §1, §2

MER/AXL = test: Dual MER/AXL inhibition (enzymatic); settings: class for both MER and AXL
Method: as §1

Row | Structure (SMILES) | IC50 (MERTK) | IC50 (AXL) | IC50 (MER/AXL)
1 | CC(=O)Nc1cccc(-c2c(-c3cnn(C)c3)oc3ncnc(Oc4ccc(NC(=O)c5cccn(-c6ccc(F)cc6)c5=O)nc4)c23)c1 [Compound 53] | 0.02 to 0.1 µM | 0.02 to 0.1 µM | 0.02 to 0.1 µM
2 | CCOc1ccn(-c2ccc(F)cc2)c(=O)c1C(=O)Nc1ccc(Oc2ncnc3[nH]cc(-c4cccc(NC(C)=O)c4)c23)cc1 [Compound 2] | 0.02 to 0.1 µM | < 0.02 µM | 0.02 to 0.1 µM
3 | Cn1cc(-c2oc3ncnc(Oc4ccc(NC(=O)c5cccn(-c6ccc(F)cc6)c5=O)cc4)c3c2-c2ccc(N3CCNCC3)cc2)cn1 [Compound 32] | < 0.02 µM | < 0.02 µM | < 0.02 µM
4 | CCOc1ccn(-c2ccc(F)cc2)c(=O)c1C(=O)Nc1ccc(Oc2ncnc3[nH]cc(-c4cccc(N)c4)c23)cc1 [Compound 1] | 0.02 to 0.1 µM | < 0.02 µM | 0.02 to 0.1 µM
5 | Cn1cc(-c2oc3ncnc(Oc4ccc(NC(=O)c5cccn(-c6ccc(F)cc6)c5=O)cc4)c3c2-c2cccc(N3CCNCC3)c2)cn1 [Compound 33] | < 0.02 µM | < 0.02 µM | < 0.02 µM
6 | Cn1cc(-c2oc3ncnc(Oc4ccc(NC(=O)c5cccn(-c6ccc(F)cc6)c5=O)cc4)c3c2-c2cccnc2)cn1 [Compound 31] | 0.1 to 50 µM | < 0.02 µM | 0.1 to 50 µM
7 | CN1CCN(c2cccc(-c3c(-c4cnn(C)c4)oc4ncnc(Oc5ccc(NC(=O)c6cccn(-c7ccc(F)cc7)c6=O)cc5)c34)c2)CC1 [Compound 38] | 0.02 to 0.1 µM | < 0.02 µM | 0.02 to 0.1 µM
8 | CN1CCN(c2ccc(-c3c(-c4cnn(C)c4)oc4ncnc(Oc5ccc(NC(=O)c6cccn(-c7ccc(F)cc7)c6=O)cc5)c34)cc2)CC1 [Compound 34] | < 0.02 µM | < 0.02 µM | < 0.02 µM
9 | O=C(Nc1ccc(Oc2ncnc3[nH]cc(-c4ccccc4)c23)cc1)c1cccn(-c2ccc(F)cc2)c1=O [Compound 8] | 0.02 to 0.1 µM | 0.1 to 50 µM | 0.1 to 50 µM
10 | O=C(Nc1ccc(Oc2ncnc3oc(-c4ccccc4)cc23)cc1)c1cccn(-c2ccc(F)cc2)c1=O [Compound 42] | 0.1 to 50 µM | 0.1 to 50 µM | 0.1 to 50 µM
11 | CC(=O)Nc1cccc(-c2c(-c3c(C)noc3C)oc3ncnc(Oc4ccc(NC(=O)c5cccn(-c6ccc(F)cc6)c5=O)cc4)c23)c1 [Compound 26] | 0.1 to 50 µM | 0.1 to 50 µM | 0.1 to 50 µM
12 | O=C(Nc1ccc(Nc2ncnc3[nH]cc(C#Cc4ccccc4)c23)cc1)c1cccn(-c2ccc(F)cc2)c1=O [Compound 13] | 0.1 to 50 µM | 0.1 to 50 µM | 0.1 to 50 µM

Second part, the molecule after the results:

Row | IC50 (MERTK) | IC50 (AXL) | IC50 (MER/AXL) | Structure (SMILES)
13 | 0.1 to 50 µM | < 0.02 µM | 0.1 to 50 µM | CCNc1cccc(-c2c(-c3cnn(C)c3)oc3ncnc(Oc4ccc(NC(=O)c5cn(C)n(-c6ccc(F)cc6)c5=O)cc4)c23)c1 [Compound 178]
14 | 0.1 to 50 µM | 0.1 to 50 µM | 0.1 to 50 µM | Cn1cc(C(=O)Nc2ccc(Oc3ncnc4[nH]cc(-c5cccc(N)c5)c34)cc2)c(=O)n1-c1ccc(F)cc1 [Compound 124]
15 | 0.02 to 0.1 µM | < 0.02 µM | 0.02 to 0.1 µM | CN(C)Cc1cccc(-c2c(-c3cnn(C)c3)oc3ncnc(Oc4ccc(NC(=O)c5cccn(-c6ccc(F)cc6F)c5=O)cc4)c23)c1 [Compound 93]
16 | 0.1 to 50 µM | 0.1 to 50 µM | 0.1 to 50 µM | CC(=O)Nc1cccc(-c2c(-c3cnn(C)c3)oc3ncnc(Oc4ccc(NC(=O)c5cccn(-c6ccc(F)nc6)c5=O)cc4)c23)c1 [Compound 81]
17 | 0.02 to 0.1 µM | < 0.02 µM | 0.02 to 0.1 µM | Cn1cc(-c2oc3ncnc(Oc4ccc(NC(=O)c5cc6c(n(-c7ccc(F)cc7)c5=O)CCCC6=O)cc4)c3c2-c2cccc(N)c2)cn1 [Compound 68]
18 | 0.1 to 50 µM | 0.1 to 50 µM | 0.1 to 50 µM | CC(=O)Nc1cccc(-c2c(-c3cnn(C)c3)oc3ncnc(Oc4ccc(NC(=O)c5c(C)ccn(-c6ccc(F)cc6)c5=O)cc4)c23)c1 [Compound 72]
19 | 0.1 to 50 µM | < 0.02 µM | 0.1 to 50 µM | CC(=O)Nc1cccc(-c2c(-c3cc[nH]n3)oc3ncnc(Oc4ccc(NC(=O)c5cccn(-c6ccc(F)cc6)c5=O)cc4)c23)c1 [Compound 67]
20 | 0.02 to 0.1 µM | < 0.02 µM | 0.02 to 0.1 µM | Cn1cc(-c2oc3ncnc(Oc4ccc(NC(=O)c5cccn(-c6ccccc6)c5=O)cc4)c3c2-c2cccc(N)c2)cn1 [Compound 54]
21 | 0.1 to 50 µM | 0.1 to 50 µM | 0.1 to 50 µM | CC(=O)Nc1cccc(-c2c(-c3cnn(C)c3)oc3ncnc(Oc4ccc(NC(=O)c5cc(-c6ccc(F)cc6)on5)cc4)c23)c1 [Compound 116]
22 | 0.1 to 50 µM | 0.02 to 0.1 µM | 0.1 to 50 µM | CN(c1cccc(-c2c(-c3cnn(C)c3)oc3ncnc(Oc4ccc(NC(=O)c5cccn(-c6ccc(F)cc6)c5=O)cc4)c23)c1)S(C)(=O)=O [Compound 65]
23 | 0.1 to 50 µM | 0.1 to 50 µM | 0.1 to 50 µM | CN(C)Cc1ccccc1-c1c(-c2cnn(C)c2)oc2ncnc(Oc3ccc(NC(=O)c4cccn(-c5ccc(F)cc5)c4=O)cc3)c12 [Compound 91]
24 | 0.1 to 50 µM | < 0.02 µM | 0.1 to 50 µM | Cn1cc(-c2oc3ncnc(Oc4ccc(NC(=O)c5cn(C)n(-c6ccc(F)cc6)c5=O)cc4)c3c2-c2cccc(CN3CCOCC3)c2)cn1 [Compound 127]
25 | 0.1 to 50 µM | < 0.02 µM | 0.1 to 50 µM | CC(=O)Nc1cccc(-c2c(-c3cnn(C)c3)oc3ncnc(Oc4ccc(NC(=O)c5cccn(-c6cccc(F)c6)c5=O)cc4)c23)c1 [Compound 57]
26 | 0.1 to 50 µM | < 0.02 µM | 0.1 to 50 µM | CC(=O)Nc1cccc(-c2c(-c3cnn(C)c3)oc3ncnc(Oc4ccc(NC(=O)c5cc6c(n(-c7ccccc7)c5=O)CCCC6=O)cc4)c23)c1 [Compound 62]

Source: patent publication US20260070911A1, “INHIBITORS OF TAM RECEPTORS” (National Health Research Institutes, priority 2022, published 2026)
